Results: patent publication US20170073337A1, “DIHYDROTHIAZINE AND DIHYDROOXAZINE DERIVATIVES HAVING BACE1 INHIBITORY ACTIVITY” (Shionogi & Co., Ltd., priority 2014, published 2017)
≈ marks a conversion by molar mass, not a printed value. Where two headings read alike, the source gives them in different places.

Tests used:
CYP2C19 = target: T1, CYP2C19 (Homo sapiens, UniProt P33261); test: CYP inhibition test (CYP2C19); assay type: in vitro ADME; conditions: pooled human liver microsomes; mephenytoin 4′-hydroxylation
T1 construct: The commercially available pooled human liver microsomes are used as an enzyme resource; from tissue; host or cells: pooled human liver microsomes
T1 sequence (P33261 whole entry): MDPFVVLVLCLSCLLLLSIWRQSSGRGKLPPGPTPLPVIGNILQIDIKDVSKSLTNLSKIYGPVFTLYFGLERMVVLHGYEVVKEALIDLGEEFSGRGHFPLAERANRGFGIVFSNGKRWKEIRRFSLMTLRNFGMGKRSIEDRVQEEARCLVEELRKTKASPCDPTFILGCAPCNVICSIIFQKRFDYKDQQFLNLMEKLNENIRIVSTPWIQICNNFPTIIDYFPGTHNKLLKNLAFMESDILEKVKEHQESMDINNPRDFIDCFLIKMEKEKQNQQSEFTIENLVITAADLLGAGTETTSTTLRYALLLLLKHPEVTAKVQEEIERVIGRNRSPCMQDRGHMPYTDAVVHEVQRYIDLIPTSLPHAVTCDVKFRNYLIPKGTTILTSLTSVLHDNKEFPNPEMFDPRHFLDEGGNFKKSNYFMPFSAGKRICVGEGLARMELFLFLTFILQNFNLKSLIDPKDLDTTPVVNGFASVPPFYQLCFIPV
In short: (§1)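 Pooled human liver microsomes (0.2 mg protein/mL) with compound at 1, 5, 10 and 20 μmol/L and NADPH, at 37 °C. Marker substrates: dextromethorphan 5 μmol/L (2D6), terfenadine 1 μmol/L (3A4), S-mephenytoin 50 μmol/L (2C19), tolbutamide 100 μmol/L (2C9). Metabolites were measured by LC/MS/MS, and IC50 was derived by logistic fit of remaining activity against the DMSO control.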

Solubility test = assay type: physicochemical
In short: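 Dissolved concentration determined by LC/MS or SPE/MS (absolute calibration) in diluted filtrates, after 2 μL of 10 mmol/L DMSO stock was added to 198 μL JP 1st or JP 2nd fluid and equilibrated either 1 h with shaking at room temperature or 16 h standing at 25 °C.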

Metabolic stability test = assay type: in vitro ADME; conditions: human liver microsomes, 37° C., 30 minutes, NADPH
In short: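 Parent compound was measured by LC/MS/MS or SPE/MS after a methanol/acetonitrile quench and reported as % remaining, with the 0 min sample set to 100%. Incubations ran 30 min at 37 °C in pH 7.4 Tris buffer containing pooled human liver microsomes at 0.5 mg protein/mL and 1 mmol/L NADPH.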

[1] = target: T2, human ether-a-go-go related gene (hERG) channel (Homo sapiens, UniProt Q12809); test: hERG test; assay type: cell-based; conditions: % inhibition of IKr tail peak current at 3 uM; CHO cells expressing hERG
T2 construct: expressed in transfected cells; host or cells: CHO cells
T2 sequence (Q12809 whole entry): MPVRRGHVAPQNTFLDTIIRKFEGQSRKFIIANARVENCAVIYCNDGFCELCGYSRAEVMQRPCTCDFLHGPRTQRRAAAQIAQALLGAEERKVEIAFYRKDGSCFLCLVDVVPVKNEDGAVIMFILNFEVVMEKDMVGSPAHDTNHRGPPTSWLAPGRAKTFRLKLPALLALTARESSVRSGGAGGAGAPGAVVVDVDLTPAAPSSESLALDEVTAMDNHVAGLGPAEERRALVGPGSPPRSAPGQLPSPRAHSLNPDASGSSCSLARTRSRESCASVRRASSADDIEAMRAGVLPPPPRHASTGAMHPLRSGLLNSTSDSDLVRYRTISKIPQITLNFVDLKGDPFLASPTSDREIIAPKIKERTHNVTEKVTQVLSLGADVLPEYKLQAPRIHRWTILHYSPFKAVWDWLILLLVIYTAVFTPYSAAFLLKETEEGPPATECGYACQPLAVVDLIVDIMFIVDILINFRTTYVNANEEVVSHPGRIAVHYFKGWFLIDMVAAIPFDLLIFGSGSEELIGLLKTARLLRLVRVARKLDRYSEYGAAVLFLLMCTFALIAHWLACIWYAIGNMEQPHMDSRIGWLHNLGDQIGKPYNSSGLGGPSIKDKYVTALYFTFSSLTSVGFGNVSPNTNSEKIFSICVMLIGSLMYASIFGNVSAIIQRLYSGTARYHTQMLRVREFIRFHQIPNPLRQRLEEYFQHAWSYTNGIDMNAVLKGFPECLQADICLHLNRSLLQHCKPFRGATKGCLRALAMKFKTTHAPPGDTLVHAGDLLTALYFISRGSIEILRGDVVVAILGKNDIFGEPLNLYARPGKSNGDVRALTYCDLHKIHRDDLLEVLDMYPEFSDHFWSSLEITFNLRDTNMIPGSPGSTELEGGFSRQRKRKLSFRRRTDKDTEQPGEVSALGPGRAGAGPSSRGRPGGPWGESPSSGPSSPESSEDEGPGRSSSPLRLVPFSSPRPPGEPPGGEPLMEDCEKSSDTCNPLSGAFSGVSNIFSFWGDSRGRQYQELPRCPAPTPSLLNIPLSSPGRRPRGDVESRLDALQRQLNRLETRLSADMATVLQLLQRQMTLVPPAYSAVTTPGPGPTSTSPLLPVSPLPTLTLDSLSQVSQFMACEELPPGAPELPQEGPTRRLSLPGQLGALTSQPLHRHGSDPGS
In short: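 Automated whole-cell patch clamp was run on CHO cells carrying human hERG, held at −80 mV. Current was recorded during the −50 mV repolarization (2 s) that followed a 2 s +20 mV step, after a −50 mV leak pulse.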

CYP3A4 = target: T3, CYP3A4 (Homo sapiens, UniProt P08684); test: CYP inhibition test (CYP3A4); assay type: in vitro ADME; conditions: pooled human liver microsomes; terfenadine hydroxylation
T3 construct: The commercially available pooled human liver microsomes are used as an enzyme resource; from tissue; host or cells: pooled human liver microsomes
T3 sequence (P08684 whole entry): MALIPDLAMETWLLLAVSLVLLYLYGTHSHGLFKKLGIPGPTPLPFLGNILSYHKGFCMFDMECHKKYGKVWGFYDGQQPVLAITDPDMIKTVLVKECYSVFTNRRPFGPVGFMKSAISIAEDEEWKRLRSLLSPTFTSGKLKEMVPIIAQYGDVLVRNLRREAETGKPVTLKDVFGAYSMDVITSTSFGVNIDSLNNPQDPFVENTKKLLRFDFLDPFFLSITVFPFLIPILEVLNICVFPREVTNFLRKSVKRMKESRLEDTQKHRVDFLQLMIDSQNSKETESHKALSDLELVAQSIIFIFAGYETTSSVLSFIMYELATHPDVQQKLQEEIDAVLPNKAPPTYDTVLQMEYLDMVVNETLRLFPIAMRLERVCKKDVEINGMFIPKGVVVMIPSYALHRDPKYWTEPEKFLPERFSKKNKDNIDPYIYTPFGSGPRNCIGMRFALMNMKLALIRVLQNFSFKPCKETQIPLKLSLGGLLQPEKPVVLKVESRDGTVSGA
In short: as §1

CYP1A2 = target: T4, CYP1A2 (Homo sapiens, UniProt P05177); test: CYP inhibition test (CYP1A2); assay type: in vitro ADME; conditions: pooled human liver microsomes; 7-ethoxyresorufin O-deethylation
T4 construct: The commercially available pooled human liver microsomes are used as an enzyme resource; from tissue; host or cells: pooled human liver microsomes
T4 sequence (P05177 1-516): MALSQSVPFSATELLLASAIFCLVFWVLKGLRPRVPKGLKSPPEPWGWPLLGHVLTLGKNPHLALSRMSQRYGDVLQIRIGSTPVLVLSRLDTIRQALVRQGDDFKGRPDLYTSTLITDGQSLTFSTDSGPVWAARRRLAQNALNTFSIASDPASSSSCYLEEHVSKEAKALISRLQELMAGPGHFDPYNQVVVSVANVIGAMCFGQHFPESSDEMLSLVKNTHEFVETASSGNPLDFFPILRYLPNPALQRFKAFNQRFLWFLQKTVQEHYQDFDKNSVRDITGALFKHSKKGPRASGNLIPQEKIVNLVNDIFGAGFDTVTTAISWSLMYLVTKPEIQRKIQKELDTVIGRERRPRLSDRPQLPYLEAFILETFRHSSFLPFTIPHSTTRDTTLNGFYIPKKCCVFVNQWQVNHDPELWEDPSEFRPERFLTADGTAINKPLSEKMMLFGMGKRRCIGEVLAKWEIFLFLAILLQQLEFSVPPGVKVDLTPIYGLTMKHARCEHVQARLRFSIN
In short: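 Inhibition of CYP1A2 was measured in commercially available pooled human liver microsomes (0.2 mg protein/mL) using 7-ethoxyresorufin O-deethylation with 0.5 μmol/L ethoxyresorufin. Test compound at 1, 5, 10, 20 μmol/L in […] Hepes buffer was incubated at 37° C. after NADPH addition; methanol/acetonitrile=1/1 (v/v) stopped the reaction, and resorufin was read fluorescently.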

[2] = JP 1st fluid, 25 °C, pH 1.2, simulated gastric fluid, kinetic from dmso stock, read-out: JP1
[3] = JP 2nd fluid A, 25 °C, pH 6.8, aqueous buffer, kinetic from dmso stock, read-out: JP2_μM
[4] = JP 1st fluid, pH 1.2, simulated gastric fluid, kinetic from dmso stock, read-out: JP1
[5] = solubility in JP 2nd fluid B, 1% DMSO, *2: shaken for 1 hour at room temperature, read-out: JP2_μM
[6] = JP 2nd fluid B, pH 6.8, aqueous buffer, kinetic from dmso stock, read-out: JP2_μM

Compound | IC50 (CYP2C19) [µM] | solubility kinetic at 16 h (Solubility test; [2]) [µM] | solubility kinetic at 16 h (Solubility test; [3]) [µM] | remaining % (Metabolic stability test) [%] | IC50 (CYP3A4) [µM] | IC50 (CYP1A2) [µM] | solubility kinetic at 1 h (Solubility test; [4]) [µM] | solubility kinetic at 1 h (Solubility test; JP 2nd fluid A, pH 6.8, aqueous buffer, kinetic from dmso stock, read-out: JP2_μM) [µM] | solubility kinetic at 16 h (Solubility test; [5]) [µM] | solubility kinetic at 1 h (Solubility test; [6]) [µM] | hERG_3 uM_% [1] [%]
C[C@H]1SC(N)=N[C@](C)(c2nc(NC(=O)c3ccc(F)cn3)ccc2F)[C@H]1F [Compound I-2] | ≥ 20 | 23.3 (≈ 9.21 µg/mL) | > 50 | 88 | ≥ 20 | ≥ 20 |  |  |  |  | 38.7
C[C@H]1SC(N)=N[C@](C)(c2nc(NC(=O)c3cnc(OCF)cn3)ccc2F)[C@H]1F [Compound I-3] | ≥ 20 | > 50 | > 50 | 81.4 | ≥ 20 | ≥ 20 |  |  |  |  | 45.5
C[C@]1(c2cc(NC(=O)c3ccc(F)cn3)ccc2F)N=C(N)O[C@H](CF)[C@@H]1OCC(F)(F)F [Compound I-11] | ≥ 20 | 42.7 (≈ 20.3 µg/mL) | > 50 | 104 | ≥ 20 | ≥ 20 |  |  |  |  | 42.5
C[C@]1(c2cc(NC(=O)c3cnc(OCF)cn3)ccc2F)N=C(N)O[C@H](CF)[C@@H]1OCC(F)(F)F [Compound I-12] | ≥ 20 | 36.1 (≈ 18.3 µg/mL) | > 50 | 97.8 | ≥ 20 | ≥ 20 |  |  |  |  | 35.5
C[C@H](F)[C@H]1OC(N)=N[C@](C)(c2cc(NC(=O)c3ccc(C#N)cn3)ccc2F)[C@H]1F [Compound I-13] | ≥ 20 | 39.6 (≈ 16.5 µg/mL) | > 50 | 101 | ≥ 20 | ≥ 20 |  |  |  |  | 52.8
C[C@@H](F)[C@H]1OC(N)=N[C@](C)(c2cc(NC(=O)c3ccc(C#N)cn3)ccc2F)[C@H]1F [Compound I-15] | ≥ 20 |  |  | 104 | ≥ 20 | ≥ 20 | 31.9 (≈ 13.3 µg/mL) | > 50 |  |  | 57
CO[C@H]1[C@@H](CF)OC(N)=N[C@]1(C)c1cc(NC(=O)c2cnc(OCF)cn2)ccc1Cl [Compound I-19] | ≥ 20 | 37.1 (≈ 16.9 µg/mL) | > 50 | 69.9 | ≥ 20 | ≥ 20 |  |  |  |  | 18.8
CO[C@H]1[C@@H](CF)OC(N)=N[C@]1(C)c1cc(NC(=O)c2ccc(F)cn2)ccc1F [Compound I-25] | ≥ 20 | 46.7 (≈ 19.1 µg/mL) | > 50 | 89.1 | ≥ 20 | ≥ 20 |  |  |  |  | 41.9
C[C@@H]1[C@@H](C(F)(F)F)OC(N)=N[C@]1(C)c1cc(NC(=O)c2ccc(C#N)cn2)ccc1F [Compound I-27] | ≥ 20 | 39.7 (≈ 17.3 µg/mL) | > 50 | 84.7 | ≥ 20 | ≥ 20 |  |  |  |  | 28.8
C[C@H]1[C@H](C(F)(F)F)OC(N)=N[C@]1(C)c1cc(NC(=O)c2ccc(C#N)cn2)ccc1F [Compound I-29] | ≥ 20 | 35 (≈ 15.2 µg/mL) | > 50 | 98.2 | ≥ 20 | ≥ 10 |  |  |  |  | 45.4
C[C@H]1[C@@H](C(F)F)OC(N)=N[C@]1(C)c1cc(NC(=O)c2ccc(C#N)cn2)ccc1F [Compound I-31] | ≥ 20 | 38.8 (≈ 16.2 µg/mL) | > 50 | 85 | ≥ 20 |  |  |  |  |  | 27.4
C[C@H]1SC(N)=N[C@](C)(c2cc(NC(=O)c3cnc(C(F)F)cn3)ccc2F)[C@H]1F [Compound I-65] | ≥ 20 |  |  | 96.5 | ≥ 20 |  | > 50 |  | >50 |  | 28
C[C@]1(c2cc(NC(=O)c3cnc(OCF)cn3)ccc2F)N=C(N)O[C@H](C(F)(F)C2CC2)[C@@H]1F [Compound I-82] | ≥ 20 |  |  | 96.5 |  | ≥ 20 | > 50 |  | >50 |  | 17.5
C[C@H]1SC(N)=N[C@](C)(c2cc(NC(=O)c3cnc(OCC4CC4)cn3)ccc2F)[C@H]1F [Compound I-85] | ≥ 20 |  |  | 93.2 |  | ≥ 20 | 47.2 (≈ 21.1 µg/mL) |  |  | 0.6 (≈ 0.269 µg/mL) | 41.4

The next lines start with results.

IC50 (CYP2C19) [µM] | solubility kinetic at 16 h (Solubility test; [2]) [µM] | solubility kinetic at 16 h (Solubility test; [3]) [µM] | remaining % (Metabolic stability test) [%] | IC50 (CYP3A4) [µM] | IC50 (CYP1A2) [µM] | solubility kinetic at 1 h (Solubility test; [4]) [µM] | solubility kinetic at 1 h (Solubility test; JP 2nd fluid A, pH 6.8, aqueous buffer, kinetic from dmso stock, read-out: JP2_μM) [µM] | solubility kinetic at 16 h (Solubility test; [5]) [µM] | solubility kinetic at 1 h (Solubility test; [6]) [µM] | Compound | hERG_3 uM_% [1] [%]
≥ 20 | 36 (≈ 15.5 µg/mL) | > 50 | 71.4 | ≥ 20 | ≥ 20 |  |  |  |  | CO[C@H]1[C@@H](CF)OC(N)=N[C@]1(C)c1cc(NC(=O)c2ccc(C#N)cn2)ccc1Cl [Compound I-18] | 44.8
≥ 20 | 38.9 (≈ 16.5 µg/mL) | > 50 | 75.4 | ≥ 20 | ≥ 20 |  |  |  |  | CO[C@H]1[C@@H](CF)OC(N)=N[C@]1(C)c1cc(NC(=O)c2ccc(F)cn2)ccc1Cl [Compound I-20] | 30.4
≥ 20 | 38.8 (≈ 17 µg/mL) | > 50 | 95.5 | ≥ 20 | ≥ 20 |  |  |  |  | CO[C@H]1[C@@H](CF)OC(N)=N[C@]1(C)c1cc(NC(=O)c2cnc(OCF)cn2)ccc1F [Compound I-24] | 6.7
≥ 20 |  |  | 80.3 | ≥ 20 |  | > 50 |  | >50 |  | C[C@H]1SC(N)=N[C@](C)(c2cc(NC(=O)c3ncc(C#N)cc3Cl)ccc2F)[C@H]1F [Compound I-64] | 41.3
≥ 20 |  |  | 69 |  | ≥ 20 | > 50 |  | >50 |  | CC[C@H]1SC(N)=N[C@](C)(c2cc(NC(=O)c3ccc(OCF)cn3)ccc2F)[C@H]1F [Compound I-67] | 56.5
≥ 20 |  |  | 85.2 |  | ≥ 20 | > 50 |  |  | 3 (≈ 1.53 µg/mL) | CC(F)(F)[C@H]1OC(N)=N[C@](C)(c2cc(NC(=O)c3cnc(OCC(F)(F)F)cn3)ccc2F)[C@H]1F [Compound I-75] | 21.3
≥ 20 |  |  | 93.1 |  | ≥ 20 | > 50 |  |  | 11.1 (≈ 5.45 µg/mL) | CC(F)(F)[C@H]1OC(N)=N[C@](C)(c2cc(NC(=O)c3cnc(OCC(F)F)cn3)ccc2F)[C@H]1F [Compound I-77] | 44.1
≥ 20 |  |  | 55.3 |  | ≥ 20 | > 50 |  |  | 29.6 (≈ 13.8 µg/mL) | COc1cnc(C(=O)Nc2ccc(F)c([C@@]3(C)N=C(N)O[C@H](C(F)(F)C4CC4)[C@@H]3F)c2)cn1 [Compound I-83] | 18.1
